Test results reported in patent US6395787B1, “Ocular hypotensive lipids” (Allergan Sales, Inc., priority 2000, dated 2002).

How the values were obtained:
[1] = test system: human platelets (DP-, TP- and IP-receptor types); assay: Human platelet aggregation and inhibition of ADP-induced aggregation; assay type: cell-based
Protocol: Prostanoid activity at the DP-, TP- and IP-receptor types was determined by an ability to cause aggregation (TP-receptor activity) or to inhibit ADP-induced aggregation of human platelets in vitro (DP- and IP-receptor activity). Fresh whole blood was obtained from consenting healthy human volunteers and mixed with acid citrate-dextrose (ACD). The blood was centrifuged at 1000 rpm for 15-20 minutes to obtain platelet rich plasma (PRP). 4.5 μl of prostanoid or vehicle was added to 450 μl of PRP and incubated for 2 minutes at 37° C. in a Payton aggregometer and observed for any aggregatory activity. 2×10^−5 M ADP (final concentration) was then added to induce full aggregation. Inhibition of aggregation was calculated as the percentage difference between aggregation evoked by 2×10^−5 M ADP in the absence and presence of drug. Aggregatory activity was calculated as the percent aggregation induced by the prostanoid relative to the aggregation induced by 2×10^−5 M ADP. Standard aggregatory responses to 2×10^−5 M ADP alone were performed at the beginning and end of each experiment.

[2] = test system: isolated rat aorta (TP receptor preparation); assay: Isolated rat aorta contraction; conditions: 10^−6 and 10^−5 M
Protocol: (§1) Smooth muscle tension of isolated tissues was measured isometrically with force displacement transducers (Grass FT-03) and recorded on Grass Polygraphs (Models 7G and 79E). The organ baths contained Krebs solution maintained at 37° C. and gassed with 95% 02/5% CO2 to give a pH of 7.4. The Krebs solution had the following composition (mM): NaCl, 118.0; KCl, 4.7; KH2PO4, 1.2; CaCl2, 1.9; MgSO4, 1.18; NaHCO3, 25.0; glucose, 11.7; indomethacin, 0.001.
Adult Sprague Dawley rats weighing 180-220 grams were anesthetized by CO2 inhalation and then decapitated and exsanguinated. The thoracic aorta was removed and cleaned of any adhering tissue. The lumen was flushed to remove any blood. The aorta was dissected into three small segments of 5-8 mm length. Each segment was mounted under 2 g of tension in a jacketed 10 ml organ bath with the aid of two wire hooks placed through the lumen of the vessel. This arrangement allowed for measurement of contraction forces developed by the circular smooth muscle. The tissues were allowed to equilibrate for 1 hour before compounds were added cumulatively to the organ baths. The response to 10^−7 M U-46619 (a thromboxane mimetic) was determined at the beginning and end of each experiment as a reference. A 30-45 minute recovery period was allowed after complete wash-out of drug. Only one test compound was examined in each tissue.

[3] = test system: isolated guinea pig ileum (EP1 receptor preparation); assay: Isolated guinea pig ileum contraction
Protocol: as §1
The guinea pig ileum is an EP1 receptor preparation. An approximately 1.5 cm segment of guinea pig ileum was suspended in a jacketed organ bath under 1 g tension. Following a 1 hr equilibration period, a wash-out dose response curve for PGE2 was obtained. 30 min wash-out periods were allowed between doses. […] A final administration of PGE2 10^−6 M was given as a reference. Data were expressed as % maximal of the PGE2 response.

dog pupil diameter = assay: Dog pupil diameter; assay type: in vivo; conditions: 0.1%; for Pupil diameter (mm), test eye: n = 6
Protocol: Dog pupil diameter was measured using an optistick (a mm ruler which included half-circle references of standard widths (mm) for reference. Gently restraining the dog by hand, pupil diameter was determined by matching a half-circle to the pupil in normal room light. In dogs with very dark pupils a specialized penlight was used, but only very briefly to avoid pupil constriction. Pupil diameter was measured at the same time as IOP and hyperemia.

human FP receptor = human FP receptor (Homo sapiens, UniProt P43088); assay: Ca2+ signal in CRL 1497 cells; assay type: cell-based; set-up: endogenous in cells; host or cells: CRL 1497 human dermal fibroblasts; Δ[Ca^2+]i mean χ ± SEM: unit not given here; conditions: for Δ[Ca^2+]i mean χ ± SEM: n = 4
Chain of human FP receptor (P43088 whole entry): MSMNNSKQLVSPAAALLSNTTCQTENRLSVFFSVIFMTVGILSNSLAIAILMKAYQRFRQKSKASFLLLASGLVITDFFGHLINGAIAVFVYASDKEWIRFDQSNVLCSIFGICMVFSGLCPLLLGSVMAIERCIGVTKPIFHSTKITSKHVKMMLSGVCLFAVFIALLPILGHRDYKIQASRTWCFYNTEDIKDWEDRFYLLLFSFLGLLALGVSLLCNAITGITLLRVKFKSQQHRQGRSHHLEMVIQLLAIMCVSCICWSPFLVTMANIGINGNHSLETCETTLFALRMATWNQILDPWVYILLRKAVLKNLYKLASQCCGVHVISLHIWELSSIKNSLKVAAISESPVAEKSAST
Protocol: Human CRL 1497 cells were plated in culture flasks and fed Dulbecco's modified Eagle's medium (DMEM) containing 10% fetal calf serum, 2 mM 1-glutamine, and 0.05 mg/ml gentacin (all purchased from Gibco, Grand Island, N.Y.). Cell cultures were maintained in a humidified atmosphere of 95% air, 5% CO2 and grown to confluency. Cells were removed from the culture flasks by approximately 1 min treatment with trypsin 0.05%/0.53 mM EDTA in Hanks Balanced Salt Solution (HBSS, Gibco, Grand Island, N.Y.) at 37° C. Proteolytic activity was arrested by adding 5 ml of 10% fetal bovine serum in DMEM. The cells were consecutively washed in Hank's BSS and medium containing 140 mM NaCl, […], 1 mM MgCl2, 1.5 mM CaCl2, 10 mM HEPES: TRIS, 5 mM glucose, 5 mM Na pyruvate, 0.1% bovine serum albumin at pH 7.4: Centrifugation for the washes was performed for 15 minutes at 200 g at room temperature. Cells were counted, resuspended in the above medium and incubated with 2×10^−6 M Fura 2/acetoxymethyl ester in a shaking water bath for 30 minutes at 37° C. The cells were subsequently washed in medium as above and resuspended at a concentration of 2×10^6 cells ml^−1. Aliquots of 0.5 ml cell suspension were then added to autocap microtubes to provide 10^6 cells per experimental determination of intracellular free Ca^2+ concentration ([Ca^2+]i).
Fluorescence was measured in a Perkin-Elmer LS-5 fluorescence spectrophotometer at excitation and emission wavelengths of 340 and 492 nm, respectively, with both slits at 10 nm. For each experimental determination 10^6 cells were washed (200×g for 5 min) and suspended in a 2 ml cuvette with buffer containing 120 mM NaCl, 6 mM KCl, 1 mM MgSO4, 1.5 mM CaCl2, 20 mM HEPES, 1 mg ml^−1 glucose and 1 mg ml^−1 Na pyruvate. Stirring was achieved by an overhead-mounted, paddle stirrer with the temperature maintained at 37° C. The cells were lysed with digitonin (10 μl of 100 mg ml^−1 DMSO) to obtain fmax. EGTA (100 mM) and sufficient 10N NaOH to adjust the pH to 8.5 were then successively added to obtain fmin.

In the case of `CCCCC[C@H](O)/C=C/[C@@H]1[C@@H](C/C=C\CCCC(=O)NCCO)[C@@H](O)C[C@H]1O` [PGF2α 1-ethanolamide, (5Z,8α,9α,11α,13E,15S)-9,11,15-trihydroxy-N-(2-hydroxyethyL)prosta-5,13-dien-1-amide], the “effect on platelets (aggregation; inhibition of ADP induced aggregation)” value [1] is reported as “No effect”, the “effect on the isolated rat aorta” value [2] is reported as “Residual activity occurred at high doses” and the Emax at 10 µM ([3]; Cavia porcellus, 10^−5 M, reference contraction PGE2 10^−6 M, n = 4, read-out: % Maximal response mean χ ± SEM) is reported as 9.7 ± 4.2%. The Emax at 1 µM ([3]; Cavia porcellus, 10^−6 M, reference contraction PGE2 10^−6 M, n = 4, read-out: % Maximal response mean χ ± SEM) was 4 ± 2.6%, the Emax at 0.1 µM ([3]; Cavia porcellus, 10^−7 M, reference contraction PGE2 10^−6 M, n = 4, read-out: % Maximal response mean χ ± SEM) was 0% and the Emax at 0.01 µM ([3]; Cavia porcellus, 10^−8 M, reference contraction PGE2 10^−6 M, n = 4, read-out: % Maximal response mean χ ± SEM) was 0%. The “effect in the guinea pig ileum” value ([3]; compared with chick ileum) was “less effective”, the “Pupil diameter (mm), test eye” value (dog pupil diameter; 0 HR (baseline)) was 6.7 ± 0.2 mm and the “Pupil diameter (mm), test eye” value (dog pupil diameter; 2 HR) was 1.0 ± 0.4 mm. For the same compound, the “Pupil diameter (mm), test eye” value (dog pupil diameter; 4 HR) was 1.0 ± 0.3 mm, the “Pupil diameter (mm), test eye” value (dog pupil diameter; 6 HR) was 1.5 ± 0.4 mm and the “Pupil diameter (mm), test eye” value (dog pupil diameter; 24 HR) was 7.0 ± 0.3 mm. The miosis (dog pupil diameter; topical) was “marked miosis”, the “Δ[Ca^2+]i mean χ ± SEM” value (human FP receptor; 10^−5 M, CRL 1497 cells) was 97.9 ± 10.8 and the “Δ[Ca^2+]i mean χ ± SEM” value (human FP receptor; 10^−6 M, CRL 1497 cells) was 45.8 ± 11.5. For the same compound, the “Δ[Ca^2+]i mean χ ± SEM” value (human FP receptor; 10^−7 M, CRL 1497 cells) was 13.5 ± 3.9, the “Δ[Ca^2+]i mean χ ± SEM” value (human FP receptor; 10^−8 M, CRL 1497 cells) was 3.4 ± 1.5 and the “difference in potency at the human FP receptor vs PGF2α” value (human FP receptor; CRL 1497 cells, Ca2+ signal) was “about a one hundred fold difference in potency”. The EC50 (human FP receptor; CRL 1497 human dermal fibroblasts, read-out: E.C.50, Ca2+ signal) was 1590 nM.
